Assay results from patent US9896423B2, “Deuterium substituted 1-[2-(2,4-dimethyl-phenylsulfanyl)-phenyl]piperazine compound or derivatives thereof, and pharmaceutical composition and use thereof” (Jiangsu Jibeier Pharmaceutical Co. Ltd., priority 2014, dated 2018).
Several values for one entry are separate records, joined by “and”; a condition that tells them apart may be missing. Identical values can stand only once. Counter-ions that a name gives are not always drawn. Like-named read-outs stand apart in the source and are kept apart here.

Test: Pharmacokinetic test in rats, intravenous injection
Type: in vivo, SD rats
Settings: for concentration at 0.25 h / concentration at 0.5 h / concentration at 1 h / concentration at 2 h / concentration at 3 h: Sprague-Dawley, intravenous, 2 mg/kg iv
Experimental: The preferred compound of the present disclosure was assessed in rats for its pharmacokinetic profile.
SD rats, male and female, weighing 150 to 250 g
Mobile phase: 10 mM ammonium formate aqueous solution:methanol=15:85
The ionization source was electrospray ionization source. The detection mode was positive mode. Multiple reaction monitoring (MRM) was used as the scanning mode. The ion reaction for the quantitative analysis was the following: m/z was 305.2\150.0 for XX, and 256.1\167.1 for diphenhydramine (the internal standard).
Four male SD rats were taken. The dosage was calculated as 5 mL/kg body weight and 2 mg/kg. XX or YY was dissolved in DMSO (3% of a total volume) and castor oil (3% of the total volume) was added to the solution, followed by agitating with a vortex mixer. Subsequently, saline was added to the mixture to the total volume to afford the intravenous injection for the rats. The injections were intravenously administered to four male SD rats. Blood from the rats' orbits was collected 3 min, 8 min, 15 min, 30 min, 1 hr, 2 hr, 3 hr, 4 hr, 6 hr, 9 hr, 12 hr and 24 hr later after the injection, respectively.
After the blood collection, the tubes were immediately gently turned upside down at least five times to ensure sufficient mixing, and placed on ice. Heparin was added for anticoagulation. The samples were centrifuged at 8000 rpm for 5 min to separate serum from erythrocyte. The serum was transferred with a pipettor to 2 mL polypropylene (PP) tubes, which were marked with the name of the compound and the time points, and stored in a refrigerator at −40° C. before LC-MS analysis. Samples with high concentrations were diluted with rat blank plasma.
2.5 μL of Meth-H2O and 5 μL of the internal standard solution (20 ng/mL, IS) were added to 50 μL of the plasma. Subsequently, 150 μL of methanol was added to the mixture to precipitate protein and the samples were then centrifuged at 13000 rpm for 5 min. The upper organic phase was taken out, filtrated with a 0.22 μM microporous membrane, and 2 μL of the sample was injected for the LC-MS analysis.

[1] = male, rat, plasma, 2 mg/kg, individual rats, read-out: Concentrations in Plasma of Rats after Intravenous Injection
[2] = male, rat, plasma, 2 mg/kg, mean, read-out: Concentrations in Plasma of Rats after Intravenous Injection, Mean ± SD
[3] = rats, iv 2 mg/kg, individual rats, 2 mg/kg

## [2H]C([2H])([2H])c1ccc(Sc2ccccc2N2CCNCC2)c(C([2H])([2H])[2H])c1 [XX, 1-{2-[2,4-bis(trideuteriomethyl)phenylsulfanyl]phenyl}piperazine hydrobromic acid salt]
male, SD, rat, plasma, iv, 2 mg/kg, rats, iv 2 mg/kg, XX n = 4, YY n = 3, read-out: AUC0-∞, Mean ± SD
  AUC(0-inf): 482 ± 23.6 ng·h/mL
male, SD, rat, plasma, iv, 2 mg/kg, rats, iv 2 mg/kg, XX n = 4, YY n = 3, read-out: Cmax, Mean ± SD
  Cmax: 126 ± 5.68 ng/mL
male, SD, rat, plasma, iv, 2 mg/kg, rats, iv 2 mg/kg, XX n = 4, YY n = 3, read-out: MRT0-∞, Mean ± SD
  MRT inf: 6.87 ± 0.84 h
male, SD, rat, plasma, iv, 2 mg/kg, rats, iv 2 mg/kg, XX n = 4, YY n = 3, read-out: Vz, Mean ± SD
  Vd: 32.9 ± 9.76 L/kg
male, SD, rat, plasma, iv, 2 mg/kg, rats, iv 2 mg/kg, XX n = 4, YY n = 3, read-out: t1/2, Mean ± SD (converted)
  half-life: 328 ± 89.4 min
male, SD, rat, plasma, iv, 2 mg/kg, rats, iv 2 mg/kg, individual rats 1-4 (Table 9), read-out: AUC0-1
  AUC(0-t): 462 ng·h/mL
male, SD, rat, plasma, iv, 2 mg/kg, rats, iv 2 mg/kg, individual rats, read-out: AUC0-∞
  AUC(0-inf): 467 ng·h/mL
male, SD, rat, plasma, iv, 2 mg/kg, rats, iv 2 mg/kg, individual rats, read-out: Cmax
  Cmax: 134 ng/mL
male, SD, rat, plasma, iv, 2 mg/kg, rats, iv 2 mg/kg, individual rats, read-out: MRT0-∞
  MRT inf: 6.59 h
male, SD, rat, plasma, iv, 2 mg/kg, rats, iv 2 mg/kg, individual rats, read-out: Vz
  Vd: 23 L/kg
male, SD, rat, plasma, iv, 2 mg/kg, rats, iv 2 mg/kg, individual rats, read-out: t1/2 (converted)
  half-life: 223 min
male, SD, rat, plasma, iv, 2 mg/kg, rats, iv 2 mg/kg, n = 4 (Table 9), read-out: AUC0-1, Mean ± SD
  AUC(0-t): 461 ± 29.5 ng·h/mL
[1]
  concentration at 0.25 h: 78.1 ng/mL
  concentration at 0.5 h: 76.6 ng/mL
  concentration at 1 h: 72.2 ng/mL
  concentration at 2 h: 60.7 ng/mL
  concentration at 3 h: 49.6 ng/mL
[2]
  concentration at 0.25 h: 77.8 ± 0.78 ng/mL
  concentration at 0.5 h: 75.2 ± 2.61 ng/mL
  concentration at 1 h: 69.9 ± 3.51 ng/mL
  concentration at 2 h: 63.2 ± 7.01 ng/mL
  concentration at 3 h: 47.8 ± 6.6 ng/mL
rats, iv 2 mg/kg, XX n = 4, YY n = 3
  CL, Mean ± SD: 4.16 ± 0.20 L/h/k
rats, iv 2 mg/kg, individual rats 1-4 (Table 9), 2 mg/kg
  AUC0-1: 492.9 µg·h/L and 466.0 µg·h/L and 421.5 µg·h/L
[3]
  AUC0-∞: 512.0 µg·h/L and 489.7 µg·h/L and 459.8 µg·h/L
  CL: 42.8 L/h/k and 3.91 L/h/k and 4.09 L/h/k and 4.35 L/h/k
  Cmax: 123.2 ng/mL and 127.2 ng/mL and 121.4 ng/mL
  MRT0-∞: 6.14 h and 6.67 h and 8.08 h
  Vz: 29.0 L/kg and 33.4 L/kg and 46.0 L/kg
  t1/2: 5.15 h and 5.66 h and 7.33 h
